The results in this text go back to patent publication US20220056019A1, “FARNESOID X RECEPTOR AGONISTS AND USES THEREOF” (Metacrine, Inc., priority 2018, published 2022).

Structures are written as SMILES.

For the assay, the target named is T1, hFXR (Homo sapiens, UniProt Q96RI1).
T1 construct: expressed in transfected cells; host or cells: CV-1 cells
T1 sequence (Q96RI1 1-486): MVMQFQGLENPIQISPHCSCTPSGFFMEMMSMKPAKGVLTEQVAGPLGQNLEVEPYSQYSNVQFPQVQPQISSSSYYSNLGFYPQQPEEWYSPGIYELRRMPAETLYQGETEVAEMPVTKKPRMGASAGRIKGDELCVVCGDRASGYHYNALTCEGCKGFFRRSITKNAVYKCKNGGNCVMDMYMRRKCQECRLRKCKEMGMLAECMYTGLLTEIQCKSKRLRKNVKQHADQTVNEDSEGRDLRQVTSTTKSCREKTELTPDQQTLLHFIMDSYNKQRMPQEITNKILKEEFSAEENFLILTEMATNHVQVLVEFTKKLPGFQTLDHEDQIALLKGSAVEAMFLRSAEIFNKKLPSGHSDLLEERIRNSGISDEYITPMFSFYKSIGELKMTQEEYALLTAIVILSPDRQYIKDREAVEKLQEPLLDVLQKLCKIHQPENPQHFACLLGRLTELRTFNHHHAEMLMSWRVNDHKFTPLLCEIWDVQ
T1 sequence (P19793 1-462 partner): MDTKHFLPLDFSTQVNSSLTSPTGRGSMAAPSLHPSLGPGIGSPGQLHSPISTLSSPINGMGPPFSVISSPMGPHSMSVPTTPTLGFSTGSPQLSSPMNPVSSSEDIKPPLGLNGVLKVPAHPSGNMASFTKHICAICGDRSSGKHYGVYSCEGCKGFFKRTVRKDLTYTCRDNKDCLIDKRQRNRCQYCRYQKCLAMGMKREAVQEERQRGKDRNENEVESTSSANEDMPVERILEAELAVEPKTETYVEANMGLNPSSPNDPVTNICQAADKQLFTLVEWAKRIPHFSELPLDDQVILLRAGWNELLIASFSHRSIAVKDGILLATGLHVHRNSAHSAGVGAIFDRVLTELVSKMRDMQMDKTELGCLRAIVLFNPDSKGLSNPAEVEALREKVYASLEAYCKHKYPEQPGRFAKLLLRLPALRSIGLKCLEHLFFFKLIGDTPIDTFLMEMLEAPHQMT
The assay is described as follows: In Vitro FXR Assay (TK): TK-ECRE-luc reporter in transfected CV-1 cells. The assay is classed as cell-based. The conditions noted are these: 18 hrs incubation, luminescence. The method, boiled down:
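CV-1, DMEM/10% charcoal-stripped FBS, 37 °C 5% CO2. Transfection O/N: hFXR + hRXR + TK-ECRE-luc + pCMX-YFP. Cpds (DMSO serial dil.) 18 h; lyse, read luminescence.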
Compound `COc1ccc(C23CCC(CN(c4cc(-c5cnc(C(C)C)s5)ccn4)C(=O)[C@H]4CC[C@H](OC(=O)NC5COC5)CC4)(CC2)CC3)cc1C` [Compound 4.35, 4-((4-(2-Isopropylthiazol-5-yl)pyridin-2-yl)((4-(4-methoxy-3-methylphenyl)bicyclo[2.2.2]octan-1-yl)methyl)carbamoyl)(trans-cyclohexyl) oxetan-3-ylcarbamate] showed a concentration for a half-maximal effect (EC50) not above 50 nM.
Next, `COc1ccc(C23CCC(CN(c4cc(-c5cnc(C(C)C)s5)ccn4)C(=O)[C@H]4CC[C@H](OC(=O)NCCO)CC4)(CC2)CC3)cc1C` [Compound 4.36, 4-((4-(2-Isopropylthiazol-5-yl)pyridin-2-yl)((4-(4-methoxy-3-methylphenyl)bicyclo[2.2.2]octan-1-yl)methyl)carbamoyl) cyclohexyl(2-hydroxyethyl)trans-carbamate]: not above 50 nM; `CCc1ncc(-c2ccnc(N(CC34CCC(c5ccc(OC)c(C)c5)(CC3)CC4)C(=O)[C@H]3CC[C@H](OC(=O)N4CC(CO)C4)CC3)c2)s1` [Compound 4.37, 4-((4-(2-Ethylthiazol-5-yl)pyridin-2-yl)((4-(4-methoxy-3-methylphenyl)bicyclo[2.2.2]octan-1-yl)methyl)carbamoyl) cyclohexyl3-(hydroxymethyl)azetidine- trans-1-carboxylate]: 50 to 1000 nM; `COc1ccc(C23CCC(CN(c4cc(-c5cnc(C(C)C)s5)ccn4)C(=O)[C@H]4CC[C@H](OC(=O)N5CC(OCCO)C5)CC4)(CC2)CC3)cc1C` [Compound 4.38, 4-((4-(2-Isopropylthiazol-5-yl)pyridin-2-yl)((4-(4-methoxy-3-methylphenyl)bicyclo[2.2.2]octan-1-yl)methyl)carbamoyl) (trans-cyclohexyl) 3-(2-hydroxyethoxy)azetidine-1-carboxylate]: not above 50 nM.
The value for `COc1ccc(C23CCC(CN(c4cc(-c5cnc(C(C)C)s5)ccn4)C(=O)[C@H]4CC[C@H](OC(=O)NCCC(C)(C)O)CC4)(CC2)CC3)cc1C` [Compound 4.39, 4-((4-(2-Isopropylthiazol-5-yl)pyridin-2-yl)((4-(4-methoxy-3-methylphenyl)bicyclo[2.2.2]octan-1-yl)methyl)carbamoyl)(trans-cyclohexyl) (3-hydroxy-3-methylbutyl)carbamate] was not above 50 nM.
The value for `COc1ccc(C23CCC(CN(c4cc(-c5cnn(C(C)C)c5)cc(Cl)n4)C(=O)[C@H]4CC[C@H](OC(=O)N5CC(O)C5)CC4)(CC2)CC3)cc1C` [Compound 4.40, 4-((6-Chloro-4-(1-isopropyl-1H-pyrazol-4-yl)pyridin-2-yl)((4-(4-methoxy-3-methylphenyl)bicyclo[2.2.2]octan-1-yl)methyl)carbamoyl) cyclohexyl trans-3-hydroxyazetidine-1-carboxylate] was not above 50 nM.
`COCC1CN(C(=O)O[C@H]2CC[C@H](C(=O)N(CC34CCC(c5ccc(OC)c(C)c5)(CC3)CC4)c3cc(-c4cnn(C(C)C)c4)ccn3)CC2)C1` [Compound 4.41, 4-((4-(1-Isopropyl-1H-pyrazol-4-yl)pyridin-2-yl) ((4-(4-methoxy-3-methylphenyl)bicyclo [2.2.2]octan-1-yl)methyl)carbamoyl)cyclohexyl trans-3-(methoxymethyl) azetidine-1-carboxylate]: the EC50 is not above 50 nM.
As for `COc1ccc(C23CCC(CN(c4cc(-c5cnn(C(C)C)c5)ccn4)C(=O)[C@H]4CC[C@H](OC(=O)N5CC(C(C)(C)O)C5)CC4)(CC2)CC3)cc1C` [Compound 4.42, 4-((4-(1-Isopropyl-1H-pyrazol-4-yl)pyridin-2-yl) ((4-(4-methoxy-3-methylphenyl)bicyclo [2.2.2]octan-1-yl)methyl)carbamoyl)cyclohexyl trans-3-(2-hydroxypropan-2-yl)azetidine-1-carboxylate], the EC50 is not above 50 nM.
The value for `COc1ccc(C23CCC(CN(c4cc(-c5cnn(C(C)C)c5)ccn4)C(=O)[C@H]4CC[C@H](OC(=O)N5CC(CCO)C5)CC4)(CC2)CC3)cc1C` [Compound 4.43, 4-((4-(1-Isopropyl-1H-pyrazol-4-yl)pyridin-2-yl) ((4-(4-methoxy-3-methylphenyl)bicyclo [2.2.2]octan-1-yl)methyl)carbamoyl)cyclohexyl trans-3-(2-hydroxyethyl) azetidine-1-carboxylate] was not above 50 nM.
The value for `COc1ccc(C23CCC(CN(c4cc(-c5cnn(C(C)C)c5)ccn4)C(=O)[C@H]4CC[C@H](OC(=O)N5CC(CS(C)(=O)=O)C5)CC4)(CC2)CC3)cc1C` [Compound 4.44, 4-((4-(1-Isopropyl-1H-pyrazol-4-yl)pyridin-2-yl) ((4-(4-methoxy-3-methylphenyl)bicyclo [2.2.2]octan-1-yl)methyl)carbamoyl)cyclohexyl trans-3-((methylsulfonyl)methyl)azetidine-1-carboxylate] was not above 50 nM; that for `COc1ccc(C23CCC(CN(c4cc(-c5cnn(C(C)C)c5)ccn4)C(=O)[C@H]4CC[C@H](OC(=O)N5CC(C#N)C5)CC4)(CC2)CC3)cc1C` [Compound 4.45, 4-((4-(1-Isopropyl-1H-pyrazol-4-yl)pyridin-2-yl) ((4-(4-methoxy-3-methylphenyl)bicyclo [2.2.2]octan-1-yl)methyl)carbamoyl)cyclohexyl trans-3-cyanoazetidine-1-carboxylate] was not above 50 nM.
Next, `COc1ccc(C23CCC(CN(c4cc(-c5cnn(C(C)C)c5)ccn4)C(=O)[C@H]4CC[C@H](OC(=O)NC(C)(C)CO)CC4)(CC2)CC3)cc1C` [Compound 4.46, 4-((4-(1-Isopropyl-1H-pyrazol-4-yl)pyridin-2-yl) ((4-(4-methoxy-3-methylphenyl)bicyclo [2.2.2]octan-1-yl)methyl)carbamoyl)cyclohexyl trans-(1-hydroxy-2-methylpropan-2-yl) carbamate]: not above 50 nM.
For the compound `COc1ccc(C23CCC(CN(c4cc(-c5cnn(C(C)C)c5)ccn4)C(=O)[C@H]4CC[C@H](OC(=O)N5CC(OC)C5)CC4)(CC2)CC3)cc1C` [Compound 4.47, 4-((4-(1-Isopropyl-1H-pyrazol-4-yl)pyridin-2-yl) ((4-(4-methoxy-3-methylphenyl)bicyclo [2.2.2]octan-1-yl)methyl)carbamoyl)(trans-cyclohexyl) 3-methoxyazetidine-1-carboxylate], the EC50 was not above 50 nM.
Next, `CCOC1CN(C(=O)O[C@H]2CC[C@H](C(=O)N(CC34CCC(c5ccc(OC)c(C)c5)(CC3)CC4)c3cc(-c4cnn(C(C)C)c4)ccn3)CC2)C1` [Compound 4.48, 4-((4-(1-Isopropyl-1H-pyrazol-4-yl)pyridin-2-yl) ((4-(4-methoxy-3-methylphenyl)bicyclo [2.2.2]octan-1-yl)methyl)carbamoyl)(trans-cyclohexyl) 3-ethoxyazetidine-1-carboxylate]: not above 50 nM.
Next, `COCCNC(=O)O[C@H]1CC[C@H](C(=O)N(CC23CCC(c4ccc(OC)c(C)c4)(CC2)CC3)c2cc(-c3cnn(C(C)C)c3)ccn2)CC1` [Compound 4.49, 4-((4-(1-Isopropyl-1H-pyrazol-4-yl)pyridin-2-yl) ((4-(4-methoxy-3-methylphenyl)bicyclo [2.2.2]octan-1-yl)methyl)carbamoyl)cyclohexyl(2-methoxyethyl)trans-carbamate]: not above 50 nM.
